Source: PMC5242352 (Iranian Journal of Pharmaceutical Research : IJPR, 2016)
Values joined by “and” are separate entries in the source; they are usually repeats but may differ in a detail not shown here. Equal entries are not always repeated. Where two headings read alike, the source gives them in different places.

Biological target: Jack bean urease (Canavalia ensiformis, UniProt P07374)
Experiment: Urease inhibition assay
Type: biochemical

Jack bean urease, sequence (P07374 whole entry, looked up): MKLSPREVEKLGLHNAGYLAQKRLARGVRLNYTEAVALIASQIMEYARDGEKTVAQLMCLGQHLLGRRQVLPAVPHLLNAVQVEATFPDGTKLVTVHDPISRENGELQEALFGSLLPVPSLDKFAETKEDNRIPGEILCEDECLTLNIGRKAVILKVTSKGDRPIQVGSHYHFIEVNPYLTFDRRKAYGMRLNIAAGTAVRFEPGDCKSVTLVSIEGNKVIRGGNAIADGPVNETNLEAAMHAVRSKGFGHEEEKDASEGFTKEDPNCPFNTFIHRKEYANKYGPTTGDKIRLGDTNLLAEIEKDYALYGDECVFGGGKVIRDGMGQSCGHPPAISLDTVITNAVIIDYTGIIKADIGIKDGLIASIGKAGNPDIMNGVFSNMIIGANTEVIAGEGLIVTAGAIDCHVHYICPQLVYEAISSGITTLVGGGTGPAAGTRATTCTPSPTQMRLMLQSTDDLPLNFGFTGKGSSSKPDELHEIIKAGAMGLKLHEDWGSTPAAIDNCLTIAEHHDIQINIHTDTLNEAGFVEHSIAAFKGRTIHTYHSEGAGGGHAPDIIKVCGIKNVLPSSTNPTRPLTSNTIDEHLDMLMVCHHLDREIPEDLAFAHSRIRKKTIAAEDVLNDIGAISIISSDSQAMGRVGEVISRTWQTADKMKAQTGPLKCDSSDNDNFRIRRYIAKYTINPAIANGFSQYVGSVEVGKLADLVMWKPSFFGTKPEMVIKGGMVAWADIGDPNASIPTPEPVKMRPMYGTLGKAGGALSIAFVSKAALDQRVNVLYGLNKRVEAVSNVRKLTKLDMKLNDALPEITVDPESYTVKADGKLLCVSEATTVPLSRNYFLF

SMILES | IC50 (IC50 (urease inhibitory activity), 37 °C, 30 minutes, read at 625 nm, triplicate) | IC50 (read-out: IC50 (urease inhibitory activity), 37 °C, 30 minutes, read at 625 nm, triplicate) [µM]
CC1(C)CC(=O)C2=C(C1)Nc1[nH]c(=O)[nH]c(=O)c1C21C(=O)Nc2ccccc21 (centres unmarked) [7a, 8',8'-Dimethyl-8',9'-dihydro-1'H-spiro [indoline-3,5'-pyrimido[4,5-b]quinoline]-2,2',4', 6'(3'H,7'H,10'H)-tetraone] | 7.44 µM and 2.81 µM | 
NC(=O)NO [hydroxyurea, reference compound] |  | 100
